According to article PMC3109722 (Journal of medicinal chemistry, 2011):
“Also recorded” adds a separate entry of the source. Values belong to the molecule of their own block, whether it stands above or below them.

How the values were obtained:
L3MBTL3 [1] = molecular target: T1, L3MBTL3 (Homo sapiens, UniProt Q96JM7); assay: AlphaScreen histone peptide competition, L3MBTL3; assay type: binding; settings: average of at least two independent trials ± SD
T1 sequence (Q96JM7 225-555 limits assumed): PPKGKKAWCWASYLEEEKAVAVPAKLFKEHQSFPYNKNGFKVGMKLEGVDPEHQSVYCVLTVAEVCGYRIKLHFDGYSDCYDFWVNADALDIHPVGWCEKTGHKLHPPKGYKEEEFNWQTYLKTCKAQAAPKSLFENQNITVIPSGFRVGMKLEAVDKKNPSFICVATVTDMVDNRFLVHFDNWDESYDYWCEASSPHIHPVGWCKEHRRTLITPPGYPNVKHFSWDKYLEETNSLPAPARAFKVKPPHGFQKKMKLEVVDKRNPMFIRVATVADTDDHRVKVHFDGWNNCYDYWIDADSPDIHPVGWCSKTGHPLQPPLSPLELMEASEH

L3MBTL3 [2] = molecular target: T1, L3MBTL3; assay: ITC binding to L3MBTL3; settings: data not shown
PHF13 = molecular target: T2, PHF13 (Homo sapiens, UniProt Q86YI8); assay: AlphaScreen histone peptide competition, PHF13; assay type: binding; settings: average of at least two independent trials ± SD
T2 sequence (Q86YI8 232-280 limits assumed): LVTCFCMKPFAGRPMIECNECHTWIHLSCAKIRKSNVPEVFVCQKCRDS

L3MBTL1 [3] = molecular target: T3, L3MBTL1 (Homo sapiens, UniProt Q9Y468); assay: AlphaScreen histone peptide competition, L3MBTL1; settings: sulfonamide series; footnote a of Table 2: no binding by AlphaScreen
T3 sequence (Q9Y468 200-522 isoform Q9Y468-1 limits assumed): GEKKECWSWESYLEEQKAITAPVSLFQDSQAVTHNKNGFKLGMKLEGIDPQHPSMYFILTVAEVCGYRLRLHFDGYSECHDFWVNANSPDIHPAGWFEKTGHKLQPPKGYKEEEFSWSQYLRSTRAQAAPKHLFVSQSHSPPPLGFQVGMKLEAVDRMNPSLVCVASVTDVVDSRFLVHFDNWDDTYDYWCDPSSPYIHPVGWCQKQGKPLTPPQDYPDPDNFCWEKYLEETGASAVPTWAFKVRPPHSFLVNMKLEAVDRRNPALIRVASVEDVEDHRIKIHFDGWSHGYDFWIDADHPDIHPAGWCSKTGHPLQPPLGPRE

L3MBTL1 [4] = molecular target: T3, L3MBTL1; assay: ITC binding to wt L3MBTL1; settings: single experiments, standard deviations from least square curve fitting

- L3MBTL3 IC50 (L3MBTL3 [1]): weak binding
- Binding to L3MBTL3 by ITC (L3MBTL3 [2]): Binding was confirmed
- PHF13 IC50 (PHF13): weak binding
Structure (SMILES): O=C(NCCCCCN1CCCC1)c1cncc(Br)c1 [Compound 7]

Structure (SMILES): O=S(=O)(NCCOCCN1CCCC1)c1cccc(Br)c1 [Compound 8]
- Binding by AlphaScreen (L3MBTL1 [3]): did not show any activity; also recorded: No Binding ^a

Structure (SMILES): O=S(=O)(NCCCCCN1CCOCC1)c1cccc(Br)c1 [Compound 9]
- Binding by AlphaScreen (L3MBTL1 [3]): did not show any activity; also recorded: No Binding ^a

- 3MBTL1 Kd (L3MBTL1 [4]): No Binding Interaction
Structure (SMILES): C[C@H]1CCN(CCCCCNS(=O)(=O)c2cccc(Br)c2)C1 [Compound 12]
